The text below walks through data of patent US20090042917A1, “Aminopyrimidine Derivative and Plant Disease Control Agent for Agricultural or Horticultural Use” (KUMIAI CHEMICAL INDUSTRY CO., LTD., priority 2006, published 2009).

As usually defined, the melting point is the temperature, or range, at which the solid turns liquid.

One data set concerns Rhizoctonia solani. Nature of the data set: Test on protective effect against Rhizoctonia solani (rice pot test). Conditions: Rhizoctonia solani, 120 h; 500 ppm active ingredient sprayed on rice (Kinmaze) at 2.5 to 3-leaf stage before inoculation; 5 days after inoculation; read-out: control level. In kind it is in vivo. Here is the method: 15 rice seeds (variety: Kinmaze) were sown in each clay pot having a diameter of 7.5 cm and allowed to grow for 3 weeks in a greenhouse. […] After air drying, the plants were inoculated by uniformly covering the surface of the soil with Rhizoctonia solani cultured in a rice-husk bran medium and incubated in a moist chamber at 30° C. […] The standard for disease development index is as follows: [table] Hereinbelow, an expression to calculate a control level (%) is shown. [formula]

For the next data set, the system named is Botrytis cinerea. In words: Test on protective effect against Botrytis cinerea (cucumber seedlings). In kind it is in vivo. Conditions: 500 ppm active ingredient sprayed on cucumber (Sagami-Hanziro) seedlings before inoculation; 2 days after. Here is the method: 4 cucumber seeds (variety: Sagami-Hanziro) were sown in each plastic cup having a diameter of 5.5 cm and allowed to grow for 7 days in a greenhouse. […] After air drying, a sterilized paper disc was immersed in a conidia suspension of Botrytis cinerea and laid on an upper side of a cucumber cotyledon for innoculation and thereafter cared in a moist chamber at 20° C.

The subject of another data set is Septoria nodorum. Nature of the data set: Test on protective effect against Septoria nodorum (wheat). In kind it is in vivo. As to conditions: Parastagonospora nodorum, 216 h; 500 ppm active ingredient sprayed on wheat (Norin No. 61) at two-leaf stage before inoculation; 9 days after; read-out: control level. Here is the method:
10 wheat seeds (variety: Norin No. 61) were sown in each plastic cup having a diameter of 5.5 cm and allowed to grow for 9 days in a greenhouse. […] After air drying, the plants were inoculated by spraying with a pycnidiospore suspension of Septoria nodorum. The inoculated plants were immediately put in a moist chamber at 25° C. (relative humidity of 100%) for 48 hours. Thereafter, the plants were transferred to a greenhouse. 9 days after, disease development indexes of first leaves for total pots were examined according to the standard in Test Example 3, a disease severity was determined using the expression in Test Example 3 and a control level (%) was calculated using the expression in Test Example 3.

The test system of another data set is Erysiphe graminis. In words: Test on protective effect against Erysiphe graminis (wheat). In kind it is in vivo. As to conditions: Blumeria graminis, 168 h; 500 ppm active ingredient sprayed on wheat (Norin No. 61) at 1.5 to 2-leaf stage before inoculation; 7 days after; read-out: control level. Here is the method:
10 wheat seeds (variety: Norin No. 61) were sown in each plastic cup having a diameter of 5.5 cm and allowed to grow for 8 days in a greenhouse. […] After air drying, the plants were inoculated by equally sprinkling with conidia of Erysiphe graminis by using a midget duster or the like for innoculation and then incubated in a greenhouse until a development of disease. 7 days after, disease development indexes of first leaves for total pots were examined according to the standard in Test Example 3, a disease severity was determined using the expression in Test Example 3 and a control level (%) was calculated using the expression in Test Example 3.

The subject of a further data set is Pyricularia oryzae. Nature of the data set: whole plant or invertebrate. The format is in vivo. Conditions: Pyricularia oryzae, 120 h, read-out: control level.
The subject of data set [1] is Pseudoperonospora cubensis. Nature of the data set: Test on protective effect against Pseudoperonospora cubensis (cucumber seedlings). The format is in vivo. As to conditions: Pseudoperonospora cubensis, 144 h; 500 ppm active ingredient sprayed on cucumber (Sagami-Hanziro) seedlings before inoculation; 6 days after; read-out: control level. Here is the method: 4 cucumber seeds (variety: Sagami-Hanziro) were sown in each plastic cup having a diameter of 5.5 cm and allowed to grow for 7 days in a greenhouse. […] After air drying, the plants were inoculated by spraying with a conidia suspension of Pseudoperonospora cubensis. The inoculated plants were immediately put in a moist chamber at 20° C. (relative humidity of 100%) for 24 hours. Thereafter, the plants were transferred to a greenhouse. 6 days after, disease development indexes of cotyledons for total pots were examined according to the standard described below, a disease severity was determined using an expression shown below and a control level (%) was calculated using another expression shown below. The standard for disease development index is as follows: [table] Hereinbelow, an expression to calculate a disease severity (%) is shown. [formula] Hereinbelow, an expression to calculate a control level (%) is shown. [formula]

Structures are written as SMILES.

Consider `Cc1cc(C)n(-c2nc(C)c(C)c(NN)n2)n1` [Comparative Compound 2, reference compound], for which the pest or weed control at 500 ppm with Rhizoctonia solani turned out to be 50%; with Septoria nodorum it was 75%. The control level with Botrytis cinerea is on record as 25%.
As to `CCC(C)c1c(NC(C)C)nc(-n2cccn2)nc1C(F)(F)F` (stereo not drawn) [Compound No. 0240, 5-sec-butyl-N-(1-methylethyl)-2-(1H-pyrazol-1-yl)-6-trifluoromethylpyrimidine-4-amine], the melting point was 85 to 87 °C. The pest or weed control at 500 ppm in the data set with Erysiphe graminis came to 100%. Also, the pest or weed control at 500 ppm in the data set on Pyricularia oryzae was 100%.
`CCC(C)c1c(F)nc(-n2cccn2)nc1NCC(F)(F)F` (stereo not drawn) [Compound No. 0349, 5-sec-butyl-6-fluoro-2-(1H-pyrazol-1-yl)-N-(2,2,2-trifluoroethyl)pyrimidine-4-amine] displayed a melting point of 132 to 134 °C. Moreover, in data set [1], the pest or weed control at 500 ppm was determined as 100%. Besides, the pest or weed control at 500 ppm with Rhizoctonia solani was 100%. For the same compound, in the data set on Erysiphe graminis, the pest or weed control at 500 ppm was determined as 100%. Besides, the pest or weed control at 500 ppm in the data set on Pyricularia oryzae was determined as 100%. Further, the pest or weed control at 500 ppm with Septoria nodorum is 100%.
`CCC(C)c1c(Cl)nc(-n2cccn2)nc1NCC(F)(F)F` (stereo not drawn) [Compound No. 0350, 5-sec-butyl-6-chloro-2-(1H-pyrazol-1-yl)-N-(2,2,2-trifluoroethyl)pyrimidine-4-amine] registered a melting point of 137 to 139 °C. Moreover, in data set [1], the pest or weed control at 500 ppm came out at 100%. Besides, the pest or weed control at 500 ppm with Rhizoctonia solani turned out to be 100%. In addition, in the data set on Erysiphe graminis, the pest or weed control at 500 ppm stood at 100%. In addition, in the data set with Pyricularia oryzae, the pest or weed control at 500 ppm worked out at 100%. Further, the pest or weed control at 500 ppm with Septoria nodorum worked out at 100%.
The compound `CCC(C)c1c(Br)nc(-n2cccn2)nc1NCC(F)(F)F` (stereo not drawn) [Compound No. 0351, 6-bromo-5-sec-butyl-2-(1H-pyrazol-1-yl)-N-(2,2,2-trifluoroethyl)pyrimidine-4-amine] registered a melting point of 136 to 139 °C. For the same compound, the pest or weed control at 500 ppm in data set [1] came to 100%. Also, the pest or weed control at 500 ppm in the data set with Rhizoctonia solani worked out at 100%. The pest or weed control at 500 ppm in the data set on Erysiphe graminis came to 100%. The pest or weed control at 500 ppm in the data set on Pyricularia oryzae was 100%. The pest or weed control at 500 ppm in the data set on Septoria nodorum is 100%.
`CCC(C)c1c(O)nc(-n2cccn2)nc1NCC(F)(F)F` (stereo not drawn) [Compound No. 0353, 5-sec-butyl-2-(1H-pyrazol-1-yl)-6-(2,2,2-trifluoroethylamino)pyrimidin-4-ol] came in with a melting point of 141 to 143 °C.
For `CCC(C)c1c(NCC(F)(F)F)nc(-n2cccn2)nc1OC(F)F` (stereo not drawn) [Compound No. 0358, 5-sec-butyl-6-difluoromethoxy-2-(1H-pyrazol-1-yl)-N-(2,2,2-trifluoroethyl)pyrimidine-4-amine], the melting point was 94 to 95 °C. For the same compound, the pest or weed control at 500 ppm in data set [1] was determined as 100%. For the same compound, the pest or weed control at 500 ppm with Erysiphe graminis is 100%. Besides, in the data set with Pyricularia oryzae, the pest or weed control at 500 ppm turned out to be 100%.
With `CCC(C)c1c(NCC(F)(F)F)nc(-n2cccn2)nc1SC` (stereo not drawn) [Compound No. 0361, 5-sec-butyl-6-methylthio-2-(1H-pyrazol-1-yl)-N-(2,2,2-trifluoroethyl)pyrimidine-4-amine], the pest or weed control at 500 ppm (in data set [1]; in the data set with Rhizoctonia solani; in the data set on Erysiphe graminis; in the data set on Pyricularia oryzae) was 100% throughout.
In turn, `CCC(C)c1c(NCC(F)(F)F)nc(-n2cccn2)nc1S(C)(=O)=O` (stereo not drawn) [Compound No. 0363, 5-sec-butyl-6-methylsulfonyl-2-(1H-pyrazol-1-yl)-N-(2,2,2-trifluoroethyl)pyrimidine-4-amine] gave a melting point of 52 to 55 °C.
In the case of `CCC(C)c1c(NCC(F)(F)F)nc(-n2cccn2)nc1N(CC)CC` (stereo not drawn) [Compound No. 0371, 5-sec-butyl-N^4, N^4-diethyl-2-(1H-pyrazol-1-yl)-N^6-(2,2,2-trifluoroethyl)pyrimidine-4,6-diamine], the pest or weed control at 500 ppm (in data set [1]; in the data set on Erysiphe graminis) was 100% throughout.
Compound `CCc1nc(-n2cccn2)nc(NCC(F)(F)F)c1C(C)CC` (stereo not drawn) [Compound No. 0385, 5-sec-butyl-6-ethyl-2-(1H-pyrazol-1-yl)-N-(2,2,2-trifluoroethyl)pyrimidine-4-amine] displayed a melting point of 89 to 90 °C. In addition, in data set [1], the pest or weed control at 500 ppm worked out at 100%. In addition, the pest or weed control at 500 ppm with Erysiphe graminis stood at 100%. For the same compound, in the data set with Pyricularia oryzae, the pest or weed control at 500 ppm came out at 100%. Besides, the pest or weed control at 500 ppm in the data set with Septoria nodorum turned out to be 100%.
`CCC(C)c1c(NCC(F)(F)F)nc(-n2cccn2)nc1C1CC1` (stereo not drawn) [Compound No. 0387, 5-sec-butyl-6-cyclopropyl-2-(1H-pyrazol-1-yl)-N-(2,2,2-trifluoroethyl)pyrimidine-4-amine] returned a melting point of 84 to 85 °C. Further, the pest or weed control at 500 ppm in data set [1] turned out to be 100%. Further, the pest or weed control at 500 ppm in the data set with Rhizoctonia solani amounted to 100%. Further, the pest or weed control at 500 ppm with Erysiphe graminis worked out at 100%. The pest or weed control at 500 ppm in the data set with Pyricularia oryzae came to 100%.
For the compound `CCC(C)c1c(Cl)nc(-n2cc(Cl)cn2)nc1NCC(F)(F)F` (stereo not drawn) [Compound No. 0434, 5-sec-butyl-6-chloro-2-(4-chloro-1H-pyrazol-1-yl)-N-(2,2,2-trifluoroethyl)pyrimidine-4-amine], the melting point was 173 to 174 °C. Besides, in the data set on Rhizoctonia solani, the pest or weed control at 500 ppm is 100%. The pest or weed control at 500 ppm with Erysiphe graminis was 100%. In addition, in the data set on Pyricularia oryzae, the pest or weed control at 500 ppm came to 100%.
The compound `CCOC(=O)c1cnn(-c2nc(Cl)c(C(C)CC)c(NCC(F)(F)F)n2)c1N` (stereo not drawn) [Compound No. 0601, ethyl 5-amino-1-[5-sec-butyl-4-chloro-6-(2,2,2-trifluoroethylamino)pyrimidin-2-yl]-1H-pyrazol-4-carboxylate] registered a melting point of 173 to 174 °C.
As to `CCC(C)c1cnc(-n2cccn2)nc1N1CCC(C)CC1` (stereo not drawn) [Compound No. 1190, 5-sec-butyl-4-(4-methylpiperidin-1-yl)-2-(1H-pyrazol-1-yl)pyrimidine], the pest or weed control at 500 ppm (in data set [1]; in the data set on Rhizoctonia solani; in the data set with Erysiphe graminis; with Septoria nodorum) was 100% each time.
For `CCC(C)c1c(Cl)nc(-n2cccn2)nc1N1CCC(C)CC1` (stereo not drawn) [Compound No. 1192, 5-sec-butyl-4-chloro-6-(4-methylpiperidin-1-yl)-2-(1H-pyrazol-1-yl)pyrimidine], the pest or weed control at 500 ppm in the data set with Rhizoctonia solani and with Erysiphe graminis was 100% each time.
For the compound `CCC(C)c1c(SC)nc(-n2cccn2)nc1N1CCC(C)CC1` (stereo not drawn) [Compound No. 1204, 5-sec-butyl-6-(4-methylpiperidin-1-yl)-4-methylthio-2-(1H-pyrazol-1-yl)pyrimidine], the melting point lay in the range of 69 to 71 °C. Also, in the data set on Rhizoctonia solani, the pest or weed control at 500 ppm was found to be 100%. In addition, in the data set on Erysiphe graminis, the pest or weed control at 500 ppm is 100%.
With `CCC(C)c1c(C#N)nc(-n2cccn2)nc1N1CCC(C)CC1` (stereo not drawn) [Compound No. 1215, 5-sec-butyl-6-(4-methylpiperidin-1-yl)-2-(1H-pyrazol-1-yl)pyrimidine-4-carbonitrile], the pest or weed control at 500 ppm (in data set [1]; with Rhizoctonia solani; with Erysiphe graminis) was 100% in each case.
`CCC(C)c1c(C)nc(-n2cccn2)nc1N1CCC(C)CC1` (stereo not drawn) [Compound No. 1225, 5-sec-butyl-4-methyl-6-(4-methylpiperidin-1-yl)-2-(1H-pyrazol-1-yl)pyrimidine]: the pest or weed control at 500 ppm (in data set [1]; with Erysiphe graminis; with Septoria nodorum) was 100% throughout.
